The test system of data set [1] is mice. Put plainly: Acute toxicity in mice, intravenous injection (LD50). The text has this: Acute toxicity of the compounds according
to the invention in terms of LD50
Referring to the above table, the injection No. 1 was adjusted to pH 7.0-7.2 by adding sodium carbonate after dissolution of the sample.

The nature of data set [2]: Transfer to plasma and plasma level duration after oral administration. It is filed as in vivo, rabbits. The conditions noted are these: for Transfer to bloodstream on oral administration: rabbit, in vivo. As for the experimental part: The sera separated from the blood samples were deproteinized with trichloroacetic acid and, then, free cysteine in the sera as well as cysteine resulting from hydrolysis following heating was determined by fluorescence labeling and high performance liquid chromatography (HPLC).

The subject of data set [3] is CCl4-induced acute hepatic disorder. Put plainly: Effect on CCl4-induced acute hepatic disorder, (A)-1 (time of pre-administration). The class given is in vivo, Wistar-strain male rats. Here is the method: Wistar-strain male rats were used after fasting.
The hepatic disorder inducer CCl4 was intraperitoneally administered to each group in a dose of 0.08 ml/kg (diluted with olive oil so as to give a dose volume of 5 ml/kg) and, after about 18 hours, the blood was sampled for the assay of s-GOT and s-GPT.

The test system is the same in data set [4]. The data set can be described thus: Effect on CCl4-induced acute hepatic disorder, (A)-2 (dose). The class given is in vivo, Male Wistar rats. The conditions noted are these: for s-GOT / s-GPT: 10 hours before CCl4. As for the experimental part:
Ten hours later, CCl4 was intraperitoneally administered in a dose of 0.08 ml/kg. About 18 hours thereafter, the blood was sampled for the assay of s-GOT and s-GPT.

In data set [5] the test system is CCl4-induced chronic hepatic disorder. The data set can be described thus: Effect on CCl4-induced chronic hepatic disorder. The class given is in vivo, Male SD rats. The settings on record: for Pathological examination of the liver: H.E. staining, compared with control group. Here is the method:
Male SD rats were used in two groups, namely the control group and the CGCa group.
CCl4 was dissolved in olive oil in a concentration of 10% (w/v) and the solution was intraperitoneally administered in a dose of 5 ml/kg twice a week (Tuesday and Friday) for 10 weeks. Three days after the last CCl4 administration, blood samples were collected in each group for the assay of s-GOT, s-GPT, etc. Assay of liver hydroxyproline (HyP) and pathological examination of the liver following H.E. staining were also performed.

For data set [6], the system named is acetaminophen-induced hepatic disorder. The data set can be described thus: Effect on acetaminophen-induced hepatic disorder. The class given is in vivo, Male SD rats. The conditions noted are these: 500 mg/kg oral, 1 hour before acetaminophen, 24 hours. As for the experimental part:
In this experiment, cysteineglucuronolactone and cysteineglucuronic acid salts (CG groups) were tested for their effects on acetaminophen-induced hepatic disorder in terms of their ability to suppress elevations in serum GOT, GPT, LDH and ALP. […] In the control and normal groups, 10 ml/kg of 0.5% CMC was orally administered and, in the CG groups, 500 mg/10 ml/kg of the respective compound was orally administered. An hour later, 400 mg/15 ml/kg of acetaminophen was intraperitoneally administered to the control and CG groups while 15 ml/kg of physiological saline was intraperitoneally administered to the normal group.

The test system of data set [7] is galactosamine-induced hepatopathy. Put plainly: Effect on galactosamine-induced hepatopathy. The class given is in vivo, Male Wistar rats. Here is the method:
Galactosamine-induced hepatopathy is caused by inhibition of glycoprotein and protein metabolisms and has been used as an experimental model since it pathologically resembles viral hepatitis.
(§1) Male Wistar rats were used after fasting.
Fifteen (15) hours later, a second administration was performed in the same dose. […] Twenty-four (24) hours thereafter, blood samples were collected for the assay of s-GOT and s-GPT.

In data set [8] the test system is alcohol-induced hepatopathy. Put plainly: Effect on alcohol-induced hepatopathy (liver TG). It is filed as in vivo, Male Wistar rats. As for the experimental part: as §1
After 13 hours, 20% alcohol was orally administered at 5 g/kg. After 8 hours, the liver was removed and TG was determined by the acetylacetone method.

A short description of data set [9]: Solubility of the calcium salt. The class given is physicochemical.
Data set [10] in a line: Acute oral toxicity test in mice (LD50). The settings on record: mouse, in vivo.
Data set [11] concerns carbon tetrachloride-induced hepatic disorder. Put plainly: Further experiments with CGL and CGNa: suppression of s-GOT and s-GPT after CCl4. It is filed as in vivo, rats. The settings on record: 2.0 g/kg oral 1 hour earlier than CCl4 0.08 ml/kg i.p.; versus control group. As for the experimental part: In further experiments in which cysteineglucuronolactone (CGL) and sodium cysteineglucuronate (CGNa) were respectively administered orally in a dose of 2.0 g/kg 1 hour earlier than intraperitoneal administration of 0.08 ml/kg of CCl4, the percent suppressions of s-GOT and s-GPT obtained as compared with the control group were as shown below.

Data set [12] relates to hepatic disorder models. Put plainly: Hepatic disorder models, overall statement. It is filed as in vivo. The conditions noted are these: oral.
[13] abbreviates: CGCa I group, 2.0 g/kg oral 12 hours before CCl4.
[14] abbreviates: CGCa II group, 2.0 g/kg oral 10 hours before CCl4.
[15] abbreviates: CGCa III group, 2.0 g/kg oral 8 hours before CCl4.
The mark [16] stands for this setting: CGCa IV group, 2.0 g/kg oral 6 hours before CCl4.
[17] abbreviates: CGCa V group, 2.0 g/kg oral 4 hours before CCl4.
Where [18] appears, read: 5% CGCa in diet, CCl4 twice a week for 10 weeks.
Setting [19] is: 2.0 g/kg oral twice, galactosamine hydrochloride 400 mg/kg i.p., 24 hours.

Entries after “also recorded” stand apart in the source; their conditions may differ.

As a reminder, the LD50 is the dose at which mortality reaches 50%. A low value points to greater toxicity. In the case of `O=C(O)C1CSC(C(O)C(O)C(O)C(O)C(=O)O)N1` (stereo not shown) [CGCa, Calcium cysteineglucuronate], the “Acute toxicity (in words)” value in [1] is recorded as “somewhat increased toxicity”. Besides, the “Lapse of time until free cysteine content in plasma began to increase” value in data set [2] (rabbits, oral 500 mg/kg) turned out to be 2 h. Besides, the “Free cysteine content in plasma after 24 hours” value in data set [2] (rabbits, oral 500 mg/kg, 24 hours) was “at a normal value”. In data set [2] (rabbits, oral, versus equimolar amount of cysteine), the “Duration of increased blood cysteine levels compared with equimolar cysteine” value is reported as “increased blood cysteine levels can be maintained for a prolonged period”. Also, in data set [3] (10 or 12 hours earlier administration, p<0.05), the “CCl4-induced increase of s-GPT (in words)” value is given as “significantly suppressed”. Further, the s-GOT was determined as 1134.9 ± 361.57 Karmen units in data set [3] (setting [13]); 921.6 ± 198.34 Karmen units in data set [3] (setting [14]); 929.0 ± 201.14 Karmen units in data set [3] (setting [15]); 1493.3 ± 480.60 Karmen units in [3] (setting [16]); 1453.0 ± 515.58 Karmen units in data set [3] (setting [17]); 1755.6 ± 784.49 Karmen units in [4] (CGCa I group, 1.02 g/kg oral). Also, the s-GOT in [4] (CGCa II group, 1.43 g/kg oral) amounted to 1192.0 ± 264.07 Karmen units; in data set [4] (CGCa III group, 2.0 g/kg oral) it was 1106.2 ± 224.53 Karmen units; in [5] (setting [18]), 358.9 ± 157.13 Karmen units; in [6], 284.2 ± 136.3 Karmen units; in data set [7] (setting [19]), 1643.1 ± 480.43 Karmen units. Further, the s-GPT in data set [3] (setting [13]) was 310.5 ± 68.08 Karmen units; in data set [3] (setting [14]), 308.5 ± 42.30 Karmen units; in data set [3] (setting [15]), 328.2 ± 105.72 Karmen units; in data set [3] (setting [16]), 502.4 ± 210.66 Karmen units; in [3] (setting [17]), 516.3 ± 166.50 Karmen units; in [4] (CGCa I group, 1.02 g/kg oral), 427.2 ± 131.72 Karmen units. Moreover, the s-GPT amounted to 309.5 ± 86.25 Karmen units in data set [4] (CGCa II group, 1.43 g/kg oral); 299.9 ± 79.85 Karmen units in data set [4] (CGCa III group, 2.0 g/kg oral); 130.3 ± 53.56 Karmen units in data set [5] (setting [18]); 121.7 ± 33.7 Karmen units in data set [6]; 702.3 ± 223.08 Karmen units in data set [7] (setting [19]). In data set [3] (administered 8 to 10 hours earlier than CCl4, p<0.05), the “CCl4-induced increase of s-GOT (in words)” value is listed as “significantly suppressed (p<0.05)”. Also, the “increase in s-GOT” value is on record as “tendency toward suppression” in data set [4] (1.43 g/kg) and “significantly suppressed (p<0.05)” in [4] (2.0 g/kg, p<0.05). Moreover, the “increase of s-GPT (in words)” value in data set [4] (1.43 g/kg, p<0.05) is reported as “significantly suppressed”. For the same compound, the “increase in s-GPT (in words)” value in data set [4] (2.0 g/kg, p<0.05) is listed as “significantly suppressed (p<0.05)”. Further, in data set [5] (0.05<p<0.10), the “elevation of LDH (in words)” value is “tended to suppress”. The ALP is 59.5 ± 23.83 King-Armstrong units in data set [5] (setting [18]) and 11.4 ± 1.52 BL (BesseyLowry) units in [6]. In data set [5] (setting [18]), this compound showed an Albumin of 3.4 ± 0.28 g/dL. Also, the Cholinesterase in [5] (setting [18]) is reported as 0.014 ± 5.16 × 10^-3 ΔpH. Also, the LDH in data set [5] (setting [18]) was determined as 491.7 ± 312.24 Wroblewski units; in [6] it was 705.1 ± 283.3 Wroblewski units. Moreover, in data set [5] (setting [18]), the “Liver HyP” value came to 371.6 ± 93.05 µg/g. The Serum iron in data set [5] (setting [18]) was determined as 215.0 ± 39.01 µg/dL. This compound registered a Total bilirubin in [5] (setting [18]) of 0.35 ± 0.108 mg/dL. Further, the γ-GTP in data set [5] (setting [18]) amounted to 3.0 ± 1.50 mU/ml. Further, the “Pathological examination of the liver” value in data set [5] was “although vacuolar degeneration was found, the original lobular structure of the liver was preserved without evidence of hepatocirrhosis, such as formation of pseudolobules; also recorded: Necrosis was scattered and cellular infiltration was slight as compared with the control group; also recorded: effective against the damage and fibrosis of hepatocytes”; in data set [5] (listed as CGC2), “suppression of the fibrosis”. Besides, the “elevation of hydroxyproline (HyP) (in words)” value in [5] (liver, p<0.05) was “significantly suppressed”. Moreover, the “elevation of s-GOT (in words)” value in data set [5] (p<0.05) was “significantly suppressed”; in data set [7] (oral, p<0.05), “inhibited the elevations significantly (p<0.05)”. In addition, the “elevation of s-GPT (in words)” value in data set [5] (p<0.05) is on record as “significantly suppressed”; in [7] (oral, p<0.05), “inhibited the elevations significantly (p<0.05)”. Besides, the “Liver TG” value in data set [8] (2.0 g/kg oral 13 hours before 20% alcohol 5 g/kg, 8 hours after alcohol) is recorded as 4.4 ± 1.29 mg/g liver. In data set [8] (oral, p<0.05), the “increase of liver TG level due to alcohol (in words)” value is “significantly suppressed this increase (p<0.05)”. Also, in data set [9], the “Solubility (in words)” value is recorded as “low solubility”. The compound also came in with an LD50 in data set [10] of 7500 mg/kg.

As to `O=C(O)C1CSC(C(O)C2OC(=O)C(O)C2O)N1` (stereo not shown) [CGL, Cysteineglucuronolactone], the “Transfer to bloodstream on oral administration” value in [2] is on record as “translocated into the bloodstream”. Also, in data set [11], the “Suppression of s-GOT” value was 35.0% and the “Suppression of s-GPT” value was determined as 34.8%. In data set [6], the ALP is given as 10.7 ± 1.04 BL (BesseyLowry) units, the LDH came to 540.3 ± 238.1 Wroblewski units, the s-GOT came to 185.0 ± 83.3 Karmen units and the s-GPT turned out to be 85.5 ± 22.7 Karmen units. Moreover, in data set [12], the “depression of GOT (in words)” value is “significant depressions” and the “depression of GPT (in words)” value is “significant depressions”.

As to `O=C(O)C1CSC(C(O)C(O)C(O)C(O)C(=O)O)N1` (stereo not shown) [CGMg, Magnesium cysteineglucuronate], in data set [6], the ALP is recorded as 12.8 ± 1.20 BL (BesseyLowry) units, the LDH came to 857.5 ± 296.1 Wroblewski units, the s-GOT is 386.3 ± 88.1 Karmen units and the s-GPT is 141.9 ± 27.5 Karmen units.

On to `O=C(O)C1CSC(C(O)C(O)C(O)C(O)C(=O)O)N1` (stereo not shown) [CGNa, Sodium cysteineglucuronate], for which, in data set [11], the “Suppression of s-GOT” value is 37.2% and the “Suppression of s-GPT” value came to 39.3%. In addition, in data set [6], the ALP is 10.4 ± 1.22 BL (BesseyLowry) units, the LDH came to 557.2 ± 240.7 Wroblewski units, the s-GOT is listed as 180.1 ± 63.0 Karmen units and the s-GPT turned out to be 78.4 ± 13.7 Karmen units.

For the compound `O=C(O)C1CSC(C(O)C(O)C(O)C(O)C(=O)O)N1` (stereo not shown) [cysteineglucuronic acid, Cysteineglucuronic acid], the “Transfer to bloodstream on oral administration” value in [2] is reported as “translocated into the bloodstream”. In [12], the “depression of GOT (in words)” value is reported as “significant depressions” and the “depression of GPT (in words)” value was “significant depressions”.

These data come from US4870071A, “Prophylactic and therapeutic agnet for hepatic disorder” (Senju Pharmaceutical Co., Ltd., priority 1986, dated 1989).
